{
  "source": "paper PMC3823594",
  "about": "“Conformational Changes Underlying Pore Dilation in the Cytoplasmic Domain of Mammalian Inward Rectifier K^+ Channels” (PLoS ONE, 2013)",
  "assay_in_all_cases": "Two-electrode voltage clamp, ACh-dependent (m2R-dependent) K+ current activation",
  "format_in_all_cases": "cell-based, mouse",
  "key": {"Kir3.2 M313D": {"tested_on": "Kir3.2 M313D", "settings": "Kir3.2 M313D with porcine m2R in Xenopus oocytes; −120 mV; Hill equation fit, min not zero", "text": "(§1) The mouse Kir3.2d isoform was subjected to functional analyses. The amino acid numbers correspond to the longest mouse Kir3.2 isoform. Point mutations were introduced using the QuikChange site-directed mutagenesis kit (Stratagene, La Jolla, CA), and the presence of the mutations was confirmed by direct DNA sequencing. The care of Xenopus laevis was in accordance with the guideline of the Institute of Experimental Animal Sciences, Osaka University. The protocol was approved by the Animal Experiment Committee of Osaka University. The frogs were deeply anesthetized by immersing in 0.2% tricaine methanesulfonate for 20 min at 18°C. A portion of an ovary lobe was surgically removed and incubated with collagenase to remove follicular cells. The oocytes were injected with the cRNAs of Kir3.2 and porcine m2-muscarinic receptor (m2R), and maintained in modified Barth’s solution at 18°C with daily solution changes. Electrophysiological studies were undertaken 48–72 h later at room temperature (20–25°C). Two-electrode voltage-clamp recordings from oocytes were performed using a GeneClamp 500B amplifier (Axon Instruments, Sunnyvale, CA). […] The bath solution contained 40 mM KCl, 50 mM NaCl, 3 mM MgCl2, 0.15 mM niflumic acid, and 5 mM HEPES-KOH (pH 7.4). The currents were recorded in the absence or presence of various concentrations of acetylcholine (ACh). Ba^2+ (3 mM) was added at the end of the recording to estimate the endogenous leak current. The data are expressed as mean values ± standard error of the mean. For the quantitative estimation of ACh-dependent current responses of the wild-type (WT) and mutant channels, the current amplitudes at the end of test pulses at each ACh concentration ([ACh]) were fitted using the following equation:\n(§2) I=min+[(max−min)/(1+(EC50/[ACh])^nH)]\n(§3) where I is the current amplitude measured at the [ACh], n H is the Hill coefficient, and EC50 is the concentration that induces 50% of the maximal response. […] The values of n H and EC50 were calculated using a non-linear least-squares best fit (SigmaPlot 9; Systat Software). Statistical analyses were performed by one-way ANOVA with post-hoc tests."}, "Kir3.2 M313Q": {"tested_on": "Kir3.2 M313Q", "settings": "Kir3.2 M313Q with porcine m2R in Xenopus oocytes; −120 mV; Hill equation fit", "text": "as §1, §2, §3"}, "Kir3.2 E236R": {"tested_on": "Kir3.2 E236R", "settings": "Kir3.2 E236R with m2R in Xenopus oocytes; various concentrations of ACh; end of test pulse to −120 mV", "text": "The mouse Kir3.2d isoform was subjected to functional analyses. The amino acid numbers correspond to the longest mouse Kir3.2 isoform. Point mutations were introduced using the QuikChange site-directed mutagenesis kit (Stratagene, La Jolla, CA), and the presence of the mutations was confirmed by direct DNA sequencing. The care of Xenopus laevis was in accordance with the guideline of the Institute of Experimental Animal Sciences, Osaka University. The protocol was approved by the Animal Experiment Committee of Osaka University. The frogs were deeply anesthetized by immersing in 0.2% tricaine methanesulfonate for 20 min at 18°C. […] The currents were recorded in the absence or presence of various concentrations of acetylcholine (ACh). […] The data are expressed as mean values ± standard error of the mean. For the quantitative estimation of ACh-dependent current responses of the wild-type (WT) and mutant channels, the current amplitudes at the end of test pulses at each ACh concentration ([ACh]) were fitted using the following equation: […]\nFigure 6 Introduction of reverse charge at position 236 of Kir3.2. […] Typical current traces of the E236R mutant recorded in the presence of various concentrations of ACh are shown. […] The current amplitudes at the end of the test pulse were normalized to that recorded at -100 mV. […]"}},
  "data": [
    {"smiles": "CC(=O)OCC[N+](C)(C)C", "note": "[ACh, acetylcholine]", "values": [
      {"measurement": "EC50", "setting": "Kir3.2 M313D", "value": "130 ± 10", "unit": "nM"},
      {"measurement": "Hill coefficient", "setting": "Kir3.2 M313D", "value": "0.73 ± 0.06"},
      {"measurement": "EC50", "setting": "Kir3.2 M313Q", "value": "50 ± 5", "unit": "nM"},
      {"measurement": "Hill coefficient", "setting": "Kir3.2 M313Q", "value": "0.81 ± 0.04"},
      {"measurement": "Sensitivity of whole-cell K+ current to m2R-stimulation", "setting": "Kir3.2 E236R", "value": "insensitive"}
    ]}
  ]
}
